Structures are written as SMILES. Where “and” joins values, the source holds several entries; their conditions need not be identical. Equal values may be shown once. Inconclusive results and toxic doses are left out.

This test relates to CD2F1 mice, L1210 leukemia ip, survival T/C. Description: NCI In Vivo Anticancer Drug Screen. Data for tumor model L1210 Leukemia (intraperitoneal) in CD2F1 (CDF1) mice. As to conditions: endpoint: mean survival time, higher = longer survival. A digest of the protocol: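 Vehicle-treated tumor-bearing mice served as controls (C) for compound-treated mice (T). Reported figure is T divided by C.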

Where [1] appears, read: dose: 100.0 mg/kg/injection, schedule: Q04DX002 (ip), vehicle: saline with Tween-80.
Setting [2] is: dose: 200.0 mg/kg/injection, schedule: Q04DX002 (ip), vehicle: saline with Tween-80.
Setting [3] is: dose: 75.0 mg/kg/injection, schedule: Q01DX001 (ip), vehicle: other.
The mark [4] stands for this setting: dose: 150.0 mg/kg/injection, schedule: Q01DX001 (ip), vehicle: other.
Where [5] appears, read: dose: 50.0 mg/kg/injection, schedule: Q04DX003 (ip), vehicle: saline.
The mark [6] stands for this setting: dose: 100.0 mg/kg/injection, schedule: Q04DX003 (ip), vehicle: saline.

Consider `COc1ccc(NC(=O)NCc2cccc(Cl)c2)cc1`, for which the T/C is, setting by setting: (dose: 50.0 mg/kg/injection, schedule: Q01DX009 (ip), vehicle: Klucel (hydroxypropylcellulose) (HPC)) 102 % of control; (dose: 100.0 mg/kg/injection, schedule: Q01DX009 (ip), vehicle: Klucel (hydroxypropylcellulose) (HPC)) 114 % of control; (dose: 200.0 mg/kg/injection, schedule: Q01DX009 (ip), vehicle: Klucel (hydroxypropylcellulose) (HPC)) 117 % of control.

Turning to `CCCCCCCCCCCCC[n+]1ccc(C#N)cc1`, the T/C (dose: 7.5 mg/kg/injection, schedule: Q01DX001 (ip), vehicle: saline) is 102 % of control; the T/C (dose: 7.5 mg/kg/injection, schedule: Q01DX009 (ip), vehicle: saline) was 107 % of control; the T/C (dose: 15.0 mg/kg/injection, schedule: Q01DX001 (ip), vehicle: saline) is 94 % of control; the T/C (dose: 15.0 mg/kg/injection, schedule: Q01DX009 (ip), vehicle: saline) was 101 % of control; the T/C (dose: 30.0 mg/kg/injection, schedule: Q01DX001 (ip), vehicle: saline) was 97 % of control.

Turning to `CCCCC(CC)COc1ccc(N=C(N)N=C(N)N)cc1` (centres undefined), the T/C reads like this: (dose: 25.0 mg/kg/injection, schedule: Q04DX002 (ip), vehicle: saline with Tween-80) 98 % of control; (dose: 50.0 mg/kg/injection, schedule: Q04DX002 (ip), vehicle: saline with Tween-80) 102 % of control.

With `CCOC(=O)c1c(-c2ccccc2)[nH]c(C)cc1=O`, the T/C runs as follows: under setting [1], 100 % of control; under setting [2], 100 % of control; (dose: 400.0 mg/kg/injection, schedule: Q04DX002 (ip), vehicle: saline with Tween-80) 100 % of control.

For `O=C(O)C12CCC(CC1)CC2`, the T/C under setting [3] is 107 % of control; the T/C under setting [4] was 104 % of control; the T/C (dose: 300.0 mg/kg/injection, schedule: Q01DX001 (ip), vehicle: other) is 104 % of control.

Take `CCCC(=O)C1=C(O)C(CC2=C(O)C(C)(C)C(=O)C(C(=O)CCC)=C2O)=C(O)C(C)(C)C1=O`: the T/C is, setting by setting: (dose: 100.0 mg/kg/injection, schedule: Q01DX001 (ip), vehicle: saline) 98 % of control; (dose: 200.0 mg/kg/injection, schedule: Q01DX001 (ip), vehicle: saline) 101 % of control.

For `c1cc2n(n1)CCN2`, the T/C runs as follows: (dose: 8.0 mg/kg/injection, schedule: Q03HX008 (ip), vehicle: saline) 95 % of control; (dose: 8.0 mg/kg/injection, schedule: Q03HX016 (ip), vehicle: saline) 96 % of control; (dose: 8.0 mg/kg/injection, schedule: Q03HX024 (ip), vehicle: saline) 102 % of control; (dose: 16.0 mg/kg/injection, schedule: Q03HX008 (ip), vehicle: saline) 98 % of control; (dose: 16.0 mg/kg/injection, schedule: Q03HX016 (ip), vehicle: saline) 97 % of control; (dose: 16.0 mg/kg/injection, schedule: Q03HX024 (ip), vehicle: saline) 104 % of control. Besides, the T/C is, setting by setting: (dose: 25.0 mg/kg/injection, schedule: Q01DX009 (ip), vehicle: saline) 103 % of control; (dose: 32.0 mg/kg/injection, schedule: Q01DX005 (ip), vehicle: saline) 100 % of control; (dose: 32.0 mg/kg/injection, schedule: Q03HX008 (ip), vehicle: saline) 102 % of control; (dose: 32.0 mg/kg/injection, schedule: Q03HX016 (ip), vehicle: saline) 98 % of control; (dose: 32.0 mg/kg/injection, schedule: Q03HX024 (ip), vehicle: saline) 107 % of control; under setting [5], 98 % of control. Moreover, the T/C is, setting by setting: (dose: 50.0 mg/kg/injection, schedule: Q04DX003 (iv), vehicle: saline) 98 % of control; (dose: 64.0 mg/kg/injection, schedule: Q01DX005 (ip), vehicle: saline) 103 % of control; (dose: 64.0 mg/kg/injection, schedule: Q01DX009 (ip), vehicle: saline) 97 % of control; (dose: 64.0 mg/kg/injection, schedule: Q03HX008 (ip), vehicle: saline) 109 % of control; (dose: 64.0 mg/kg/injection, schedule: Q03HX016 (ip), vehicle: saline) 102 % of control; (dose: 64.0 mg/kg/injection, schedule: Q03HX024 (ip), vehicle: saline) 116 % of control. Besides, the T/C (dose: 100.0 mg/kg/injection, schedule: Q01DX009 (ip), vehicle: saline) was 120 % of control; the T/C under setting [6] was 102 % of control; the T/C (dose: 100.0 mg/kg/injection, schedule: Q04DX003 (ip), vehicle: water) is 120 % of control and 105 % of control; the T/C (dose: 100.0 mg/kg/injection, schedule: Q04DX003 (iv), vehicle: saline) was 98 % of control; the T/C (dose: 128.0 mg/kg/injection, schedule: Q01DX001 (ip), vehicle: saline) is 104 % of control; the T/C (dose: 128.0 mg/kg/injection, schedule: Q01DX005 (ip), vehicle: saline) was 114 % of control. Moreover, the T/C (dose: 128.0 mg/kg/injection, schedule: Q01DX009 (ip), vehicle: saline) was 122 % of control; the T/C (dose: 128.0 mg/kg/injection, schedule: Q04DX003 (ip), vehicle: saline) is 105 % of control; the T/C (dose: 128.0 mg/kg/injection, schedule: Q08DX002 (ip), vehicle: saline) is 104 % of control; the T/C (dose: 200.0 mg/kg/injection, schedule: Q01DX009 (ip), vehicle: saline) is 118 % of control; the T/C (dose: 200.0 mg/kg/injection, schedule: Q04DX003 (ip), vehicle: saline) is 108 % of control; the T/C (dose: 200.0 mg/kg/injection, schedule: Q04DX003 (ip), vehicle: water) is 115 % of control and 120 % of control. The T/C by setting is: (dose: 200.0 mg/kg/injection, schedule: Q04DX003 (iv), vehicle: saline) 101 % of control; (dose: 256.0 mg/kg/injection, schedule: Q01DX001 (ip), vehicle: saline) 110 % of control; (dose: 256.0 mg/kg/injection, schedule: Q01DX005 (ip), vehicle: saline) 107 % of control; (dose: 256.0 mg/kg/injection, schedule: Q01DX009 (ip), vehicle: saline) 100 % of control; (dose: 256.0 mg/kg/injection, schedule: Q08DX002 (ip), vehicle: saline) 106 % of control; (dose: 400.0 mg/kg/injection, schedule: Q04DX003 (ip), vehicle: saline) 124 % of control. The T/C was 153 % of control (dose: 400.0 mg/kg/injection, schedule: Q04DX003 (ip), vehicle: water); 159 % of control (dose: 512.0 mg/kg/injection, schedule: Q04DX003 (ip), vehicle: saline); 165 % of control (dose: 512.0 mg/kg/injection, schedule: Q08DX002 (ip), vehicle: saline); 101 % of control (dose: 600.0 mg/kg/injection, schedule: Q04DX003 (ip), vehicle: water).

On to `O=C(NCCF)NC1CCSc2ccccc21` (centres undefined), for which the T/C was 101 % of control under setting [3] and 103 % of control under setting [4].

As for `OC(c1ccccc1)(c1ccccc1)c1ccc(CN2CCCCC2)cc1`, the T/C by setting is: (dose: 12.5 mg/kg/injection, schedule: Q01DX009 (ip), vehicle: other) 94 % of control; (dose: 25.0 mg/kg/injection, schedule: Q01DX009 (ip), vehicle: other) 92 % of control; (dose: 50.0 mg/kg/injection, schedule: Q01DX009 (ip), vehicle: other) 86 % of control; (dose: 100.0 mg/kg/injection, schedule: Q01DX009 (ip), vehicle: other) 86 % of control; (dose: 200.0 mg/kg/injection, schedule: Q01DX009 (ip), vehicle: other) 87 % of control.

For the compound `CCC(c1ccc(O)c(CN(CC)CC)c1)C(CC)c1ccc(O)c(CN(CC)CC)c1` (centres undefined), the T/C under setting [1] was 92 % of control and the T/C under setting [2] is 92 % of control.

For `CCOc1ccc(C(=O)OC(CN(CC)CC)c2ccccc2)cc1` (centres undefined), the T/C was 102 % of control (dose: 25.0 mg/kg/injection, schedule: Q04DX003 (ip), vehicle: saline); 102 % of control under setting [5]; 89 % of control under setting [6].

With `CCOc1ccc(-n2c(O)c(N=Nc3ccccc3OC)c(=O)n(-c3ccccc3)c2=S)cc1`, the T/C runs as follows: (dose: 100.0 mg/kg/injection, schedule: Q01DX001 (ip), vehicle: saline with Tween-80) 93 % of control; (dose: 200.0 mg/kg/injection, schedule: Q01DX001 (ip), vehicle: saline with Tween-80) 91 % of control.

On to `CC1CP(c2ccccc2)(c2ccccc2)(c2ccccc2)OC1(C(=O)c1ccccc1)c1ccccc1` (centres undefined), for which the T/C reads like this: (dose: 25.0 mg/kg/injection, schedule: Q01DX009 (ip), vehicle: saline with Tween-80) 89 % of control; (dose: 100.0 mg/kg/injection, schedule: Q04DX003 (ip), vehicle: saline with Tween-80) 91 % of control.

The values are drawn from PubChem BioAssay AID256 (DTP/NCI, 2004).
